The source of these data is US9637493B2, “Substituted pyrrolopyrimidines as HDM2 inhibitors” (Merck Sharp & Dohme Corp., priority 2012, dated 2017).

Chain of HDM2 (Q00987 17-125): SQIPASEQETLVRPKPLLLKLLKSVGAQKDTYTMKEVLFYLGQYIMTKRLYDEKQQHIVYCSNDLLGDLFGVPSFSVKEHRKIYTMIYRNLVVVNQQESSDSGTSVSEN

The test concerns the target HDM2 (Homo sapiens (Human), UniProt Q00987). The experiment in a line: HDM2 FRET assay (inhibition of p53 peptide binding to HDM2). To be noted: truncated HDM2 residues 17 to 125, 0.5 nM; FITC labeled 8-mer peptide 3 nM; two hour incubation at room temperature. The protocol:
Methods: An HDM2 FRET assay was developed to assess the compounds' inhibitory activity towards binding of p53 protein. […] (containing p53 binding surface, Science (1994) 265, 346-355), with N-terminal His and Thioredoxin tag was generated in pET32a expression vector and expressed in E. coli strain BL21(DE3)Rosetta. Protein was purified using Ni-affinity chromatography, followed by size exclusion chromatography using Superdex 75 26/60 column. […] After two hour incubation at room temperature in a humidified chamber plates were read on EnVision plate reader with the following settings: excitation: UV, […], two emission filters: 520 nm and 495 nm respectively. […] IC50 DETERMINATIONS: Dose-response curves were plotted from the inhibition data, from 10 point serial dilutions of inhibitory compounds. Concentration of compound was plotted against em520/Cem495 ratio signal. To generate IC50 values, the dose-response curves were fitted to a standard sigmoidal curve and IC50 values were derived by nonlinear regression analysis.
What is called IC50 is the concentration that inhibits the measured activity by half. The compound `C[C@H]1CC[C@H](Cn2c(C(F)c3ccccc3F)cc3nc(C(=O)O)nc(-c4cncc(Cl)c4)c32)CC1` (mixture of isomers) [Example 8.1, 4-(5-chloropyridin-3-yl)-6-[fluoro(2-fluorophenyl)methyl]-5-[(trans-4-methylcyclohexyl)methyl]-5H-pyrrolo[3,2-d]pyrimidine-2-carboxylic acid] yielded an IC50 of 3 nM.

In turn, `Cc1ccc(F)c(-c2cc3nc(C(=O)O)nc(N[C@H](C)C4CCC4)c3n2Cc2ccc(C(F)(F)F)cc2)c1` [Example 1.1, (R)-4-((1-cyclobutylethyl)amino)-6-(2-fluoro-5-methylphenyl)-5-(4-(trifluoromethyl)benzyl)-5H-pyrrolo[3,2-d]pyrimidine-2-carboxylic acid] came in with an IC50 of 62 nM. Compared with the last compound, the IC50 is about 21-fold higher. The compound `Cc1ccc(F)c(-c2cn(Cc3ccc(C(F)(F)F)cc3)c3c(N[C@H](C)C4CCC4)nc(C(=O)O)nc23)c1` [Example 1.2, (R)-4-((1-cyclobutylethyl)amino)-7-(2-fluoro-5-methylphenyl)-5-(4-(trifluoromethyl)benzyl)-5H-pyrrolo[3,2-d]pyrimidine-2-carboxylic acid] displayed an IC50 of 353 nM. `Cc1cccc(-c2cc3nc(C(=O)O)nc(N[C@H](C)C4CCC4)c3n2Cc2ccc(C(F)(F)F)cc2)c1` [Example 1.3, (R)-4-((1-cyclobutylethyl)amino)-6-(m-tolyl)-5-(4-(trifluoromethyl)benzyl)-5H-pyrrolo[3,2-d]pyrimidine-2-carboxylic acid] came in with an IC50 of 140 nM. The compound `Cc1cccc(-c2c(C)c3nc(C(=O)O)nc(N[C@H](C)C4CCC4)c3n2Cc2ccc(C(F)(F)F)cc2)c1` [Example 1.4, (R)-4-((1-cyclobutylethyl)amino)-7-methyl-6-(m-tolyl)-5-(4-(trifluoromethyl)benzyl)-5H-pyrrolo[3,2-d]pyrimidine-2-carboxylic acid] gave an IC50 of 130 nM.

`COc1ccc(C)cc1-c1cc2nc(C(=O)O)nc(N[C@H](C)C3CCC3)c2n1Cc1ccc(C(F)(F)F)cc1` [Example 1.5, 4-{[(1R)-1-cyclobutylethyl]amino}-6-(2-methoxy-5-methylphenyl)-5-[4-(trifluoromethyl)benzyl]-5H-pyrrolo[3,2-d]pyrimidine-2-carboxylic acid] had an IC50 of 42 nM. Compound `C[C@@H](Nc1nc(C(=O)O)nc2cc(-c3ccc4occc4c3)n(Cc3ccc(C(F)(F)F)cc3)c12)C1CCC1` [Example 1.6, 6-(1-benzofuran-5-yl)-4-{[(1R)-1-cyclobutylethyl]amino}-5-[4-(trifluoromethyl)benzyl]-5H-pyrrolo[3,2-d]pyrimidine-2-carboxylic acid] showed an IC50 of 105 nM. Turning to `Cc1ccc(Cl)c(-c2cc3nc(C(=O)O)nc(N[C@H](C)C4CCC4)c3n2Cc2ccc(C(F)(F)F)cc2)c1` [Example 1.7, 6-(2-chloro-5-methylphenyl)-4-{[(1R)-1-cyclobutylethyl]amino}-5-[4-(trifluoromethyl)benzyl]-5H-pyrrolo[3,2-d]pyrimidine-2-carboxylic acid], the IC50 turned out to be 63 nM. For `Cc1ccc(Cl)c(-c2cn(Cc3ccc(C(F)(F)F)cc3)c3c(N[C@H](C)C4CCC4)nc(C(=O)O)nc23)c1` [Example 1.8, 7-(2-chloro-5-methylphenyl)-4-{[(1R)-1-cyclobutylethyl]amino}-5-[4-(trifluoromethyl)benzyl]-5H-pyrrolo[3,2-d]pyrimidine-2-carboxylic acid] the value was 712 nM; for `Cc1ccnc(-c2cc3nc(C(=O)O)nc(N[C@H](C)C4CCC4)c3n2Cc2ccc(C(F)(F)F)cc2)c1` [Example 1.9, 4-{[(1R)-1-cyclobutylethyl]amino}-6-(4-methylpyridin-2-yl)-5-[4-(trifluoromethyl)benzyl]-5H-pyrrolo[3,2-d]pyrimidine-2-carboxylic acid], 18 nM; for `CC(C)c1ccnc(-c2cc3nc(C(=O)O)nc(N[C@H](C)C4CCC4)c3n2Cc2ccc(C(F)(F)F)cc2)c1` [Example 1.10, 4-{[(1R)-1-cyclobutylethyl]amino}-6-[4-(1-methylethyl)pyridin-2-yl]-5-[4-(trifluoromethyl)benzyl]-5H-pyrrolo[3,2-d]pyrimidine-2-carboxylic acid], 26 nM.
